PubChem BioAssay (NCI)
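Method: 48-hour compound exposure of cells in 96-well plates, five concentrations, linear interpolation of endpoints. TGI marks complete inhibition of growth.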

Columns and labels:
Experiment in all cases: NCI-60 cell line screen, 48 h
OVCAR-5 ovarian = system: OVCAR-5 ovarian
SK-MEL-28 melanoma = system: SK-MEL-28 melanoma
XF 498 CNS = system: XF 498 CNS
HCC-2998 colon = system: HCC-2998 colon
K-562 leukemia = system: K-562 leukemia
NCI-H226 lung = system: NCI-H226 lung
KM12 colon = system: KM12 colon
CAKI-1 renal = system: CAKI-1 renal
UACC-62 melanoma = system: UACC-62 melanoma
MOLT-4 leukemia = system: MOLT-4 leukemia
RPMI-8226 leukemia = system: RPMI-8226 leukemia
A549 NSCLC = system: A549 NSCLC
SK-MEL-5 melanoma = system: SK-MEL-5 melanoma
SF-295 CNS = system: SF-295 CNS
OVCAR-3 ovarian = system: OVCAR-3 ovarian
LXFL 529 NSCLC = system: LXFL 529 NSCLC
HOP-92 NSCLC = system: HOP-92 NSCLC
DMS 114 small cell lung = system: DMS 114 small cell lung
DLD-1 colon = system: DLD-1 colon
DMS 273 small cell lung = system: DMS 273 small cell lung
COLO 205 colon = system: COLO 205 colon
UO-31 renal = system: UO-31 renal
EKVX NSCLC = system: EKVX NSCLC
786-0 renal = system: 786-0 renal
M14 melanoma = system: M14 melanoma
LOX IMVI melanoma = system: LOX IMVI melanoma
RXF 393 renal = system: RXF 393 renal
HCT-116 colon = system: HCT-116 colon
OVCAR-8 ovarian = system: OVCAR-8 ovarian
OVCAR-4 ovarian = system: OVCAR-4 ovarian
M19-MEL melanoma = system: M19-MEL melanoma
MALME-3M melanoma = system: MALME-3M melanoma
IGROV1 ovarian = system: IGROV1 ovarian
CCRF-CEM leukemia = system: CCRF-CEM leukemia
KM20L2 colon = system: KM20L2 colon
SNB-19 CNS = system: SNB-19 CNS
SF-268 CNS = system: SF-268 CNS
HCT-15 colon = system: HCT-15 colon
A498 renal = system: A498 renal
SF-539 CNS = system: SF-539 CNS
SW-620 colon = system: SW-620 colon
HT29 colon = system: HT29 colon
SK-MEL-2 melanoma = system: SK-MEL-2 melanoma
HL-60(TB) leukemia = system: HL-60(TB) leukemia
SN12C renal = system: SN12C renal
NCI-H460 lung = system: NCI-H460 lung
UACC-257 melanoma = system: UACC-257 melanoma
U251 CNS = system: U251 CNS
SNB-78 CNS = system: SNB-78 CNS
ACHN renal = system: ACHN renal
HOP-18 NSCLC = system: HOP-18 NSCLC
SK-OV-3 ovarian = system: SK-OV-3 ovarian
SNB-75 CNS = system: SNB-75 CNS
TK-10 renal = system: TK-10 renal
RXF-631 renal = system: RXF-631 renal
NCI-H23 lung = system: NCI-H23 lung
NCI-H522 lung = system: NCI-H522 lung
HOP-62 NSCLC = system: HOP-62 NSCLC
SR leukemia = system: SR leukemia

## CC(=O)Nc1[nH]c(=O)[nH]c(=O)c1N(C(C)=O)C(C)=O
OVCAR-5 ovarian
  TGI: > 100 µM
SK-MEL-28 melanoma
  TGI: > 100 µM
XF 498 CNS
  TGI: > 100 µM
HCC-2998 colon
  TGI: > 100 µM
K-562 leukemia
  TGI: > 100 µM
NCI-H226 lung
  TGI: > 100 µM
KM12 colon
  TGI: > 100 µM
CAKI-1 renal
  TGI: > 100 µM
UACC-62 melanoma
  TGI: > 100 µM
MOLT-4 leukemia
  TGI: > 100 µM
RPMI-8226 leukemia
  TGI: > 100 µM
A549 NSCLC
  TGI: > 100 µM
SK-MEL-5 melanoma
  TGI: > 100 µM
SF-295 CNS
  TGI: > 100 µM
OVCAR-3 ovarian
  TGI: > 100 µM
LXFL 529 NSCLC
  TGI: > 100 µM
HOP-92 NSCLC
  TGI: > 100 µM
DMS 114 small cell lung
  TGI: > 100 µM
DLD-1 colon
  TGI: > 100 µM
DMS 273 small cell lung
  TGI: > 100 µM
COLO 205 colon
  TGI: > 100 µM
UO-31 renal
  TGI: > 100 µM
EKVX NSCLC
  TGI: > 100 µM
786-0 renal
  TGI: > 100 µM
M14 melanoma
  TGI: > 100 µM
LOX IMVI melanoma
  TGI: > 100 µM
RXF 393 renal
  TGI: > 100 µM
HCT-116 colon
  TGI: > 100 µM
OVCAR-8 ovarian
  TGI: > 100 µM
OVCAR-4 ovarian
  TGI: > 100 µM
M19-MEL melanoma
  TGI: > 100 µM
MALME-3M melanoma
  TGI: > 100 µM
IGROV1 ovarian
  TGI: > 100 µM
CCRF-CEM leukemia
  TGI: > 100 µM
KM20L2 colon
  TGI: > 100 µM
SNB-19 CNS
  TGI: > 100 µM
SF-268 CNS
  TGI: > 100 µM
HCT-15 colon
  TGI: > 100 µM
A498 renal
  TGI: > 100 µM
SF-539 CNS
  TGI: > 100 µM
SW-620 colon
  TGI: > 100 µM
HT29 colon
  TGI: > 100 µM
SK-MEL-2 melanoma
  TGI: > 100 µM
HL-60(TB) leukemia
  TGI: > 100 µM
SN12C renal
  TGI: > 100 µM
NCI-H460 lung
  TGI: > 100 µM
UACC-257 melanoma
  TGI: > 100 µM
U251 CNS
  TGI: > 100 µM
SNB-78 CNS
  TGI: > 100 µM
ACHN renal
  TGI: > 100 µM

## O=C(O)CNS(=O)(=O)c1ccc(NC(=O)c2cccc([N+](=O)[O-])c2)cc1
HOP-18 NSCLC
  TGI: > 100 µM
OVCAR-5 ovarian
  TGI: > 100 µM
SK-MEL-28 melanoma
  TGI: > 100 µM
XF 498 CNS
  TGI: > 100 µM
HCC-2998 colon
  TGI: > 100 µM
K-562 leukemia
  TGI: > 100 µM
NCI-H226 lung
  TGI: > 100 µM
KM12 colon
  TGI: > 100 µM
CAKI-1 renal
  TGI: > 100 µM
UACC-62 melanoma
  TGI: > 100 µM
MOLT-4 leukemia
  TGI: > 100 µM
RPMI-8226 leukemia
  TGI: > 100 µM
A549 NSCLC
  TGI: > 100 µM
SK-MEL-5 melanoma
  TGI: > 100 µM
SF-295 CNS
  TGI: > 100 µM
OVCAR-3 ovarian
  TGI: > 100 µM
SK-OV-3 ovarian
  TGI: > 100 µM
LXFL 529 NSCLC
  TGI: > 100 µM
HOP-92 NSCLC
  TGI: > 100 µM
DLD-1 colon
  TGI: > 100 µM
DMS 273 small cell lung
  TGI: > 100 µM
COLO 205 colon
  TGI: > 100 µM
UO-31 renal
  TGI: > 100 µM
EKVX NSCLC
  TGI: > 100 µM
786-0 renal
  TGI: > 100 µM
M14 melanoma
  TGI: > 100 µM
LOX IMVI melanoma
  TGI: > 100 µM
RXF 393 renal
  TGI: > 100 µM
SNB-75 CNS
  TGI: > 100 µM
OVCAR-8 ovarian
  TGI: > 100 µM
OVCAR-4 ovarian
  TGI: > 100 µM
TK-10 renal
  TGI: > 100 µM
RXF-631 renal
  TGI: > 100 µM
M19-MEL melanoma
  TGI: > 100 µM
MALME-3M melanoma
  TGI: > 100 µM
NCI-H23 lung
  TGI: > 100 µM
IGROV1 ovarian
  TGI: > 100 µM
CCRF-CEM leukemia
  TGI: > 100 µM
KM20L2 colon
  TGI: > 100 µM
SNB-19 CNS
  TGI: > 100 µM
SF-268 CNS
  TGI: > 100 µM
HCT-15 colon
  TGI: > 100 µM
A498 renal
  TGI: > 100 µM
SF-539 CNS
  TGI: > 100 µM
SW-620 colon
  TGI: > 100 µM
HT29 colon
  TGI: > 100 µM
SK-MEL-2 melanoma
  TGI: > 100 µM
HL-60(TB) leukemia
  TGI: > 100 µM
NCI-H522 lung
  TGI: > 100 µM
SN12C renal
  TGI: > 100 µM
NCI-H460 lung
  TGI: > 100 µM
UACC-257 melanoma
  TGI: > 100 µM
U251 CNS
  TGI: > 100 µM
ACHN renal
  TGI: > 100 µM

## CC1=C[C@H]2C[C@@]3(C)O[C@@H]([C@]4(C)CC[C@H]([C@@H](C)C(=O)O)OO4)CC3C(C)(C)[C@H]2CC1 (stereo partly specified)
OVCAR-5 ovarian
  TGI: 4.67 µM
SK-MEL-28 melanoma
  TGI: 2.95 µM
XF 498 CNS
  TGI: 0.234 µM
HCC-2998 colon
  TGI: 2.28 µM
NCI-H226 lung
  TGI: 3.82 µM
KM12 colon
  TGI: 1.65 µM
CAKI-1 renal
  TGI: 2.89 µM
A549 NSCLC
  TGI: 3.62 µM
SF-295 CNS
  TGI: 3.44 µM
OVCAR-3 ovarian
  TGI: 3.29 µM
LXFL 529 NSCLC
  TGI: 1.9 µM
HOP-92 NSCLC
  TGI: 0.273 µM
DMS 114 small cell lung
  TGI: 3.32 µM
DLD-1 colon
  TGI: 2.47 µM
DMS 273 small cell lung
  TGI: 1.74 µM
COLO 205 colon
  TGI: 3.31 µM
UO-31 renal
  TGI: 2.59 µM
EKVX NSCLC
  TGI: 3.67 µM
786-0 renal
  TGI: 4.99 µM
M14 melanoma
  TGI: 2.96 µM
LOX IMVI melanoma
  TGI: 0.296 µM
RXF 393 renal
  TGI: 2.53 µM
HOP-62 NSCLC
  TGI: 3.94 µM
SNB-75 CNS
  TGI: 2.35 µM
HCT-116 colon
  TGI: 3.78 µM
OVCAR-8 ovarian
  TGI: 3.54 µM
OVCAR-4 ovarian
  TGI: 2.9 µM
TK-10 renal
  TGI: 4.28 µM
M19-MEL melanoma
  TGI: 3.3 µM
MALME-3M melanoma
  TGI: 2.22 µM
NCI-H23 lung
  TGI: 3.55 µM
KM20L2 colon
  TGI: 3.91 µM
SNB-19 CNS
  TGI: 3.28 µM
SF-268 CNS
  TGI: 4.2 µM
SF-539 CNS
  TGI: 3.57 µM
SW-620 colon
  TGI: 0.856 µM
HT29 colon
  TGI: 1.77 µM
SK-MEL-2 melanoma
  TGI: 3.21 µM
HL-60(TB) leukemia
  TGI: 0.306 µM
NCI-H522 lung
  TGI: 0.832 µM
SN12C renal
  TGI: 2.79 µM
NCI-H460 lung
  TGI: 2.74 µM
UACC-257 melanoma
  TGI: 3.17 µM
U251 CNS
  TGI: 3.01 µM
SNB-78 CNS
  TGI: 2.78 µM
ACHN renal
  TGI: 3.05 µM

## COc1ccccc1OCC(COC(=O)Nc1ccc(C)cc1)OC(=O)Nc1ccc(C)cc1 (stereo unspecified)
HOP-18 NSCLC
  TGI: 40.3 µM
OVCAR-5 ovarian
  TGI: 47.4 µM
SK-MEL-28 melanoma
  TGI: 60.8 µM
HCC-2998 colon
  TGI: 35.3 µM
K-562 leukemia
  TGI: 45.5 µM
NCI-H226 lung
  TGI: 67.5 µM
KM12 colon
  TGI: 43.4 µM
CAKI-1 renal
  TGI: 34.3 µM
UACC-62 melanoma
  TGI: 30.6 µM
MOLT-4 leukemia
  TGI: 48.8 µM
RPMI-8226 leukemia
  TGI: 38.8 µM
A549 NSCLC
  TGI: > 100 µM
SK-MEL-5 melanoma
  TGI: 47.7 µM
SF-295 CNS
  TGI: 49 µM
OVCAR-3 ovarian
  TGI: 33.9 µM
SK-OV-3 ovarian
  TGI: 47.8 µM
LXFL 529 NSCLC
  TGI: > 100 µM
HOP-92 NSCLC
  TGI: 29 µM
DMS 114 small cell lung
  TGI: 29.3 µM
DLD-1 colon
  TGI: 31.8 µM
DMS 273 small cell lung
  TGI: 32 µM
COLO 205 colon
  TGI: 32.4 µM
UO-31 renal
  TGI: 34.3 µM
EKVX NSCLC
  TGI: 65.8 µM
786-0 renal
  TGI: 44 µM
M14 melanoma
  TGI: 46.2 µM
LOX IMVI melanoma
  TGI: 30.2 µM
RXF 393 renal
  TGI: 20.2 µM
HOP-62 NSCLC
  TGI: > 100 µM
SNB-75 CNS
  TGI: 69.1 µM
HCT-116 colon
  TGI: 31.3 µM
OVCAR-8 ovarian
  TGI: 38.4 µM
TK-10 renal
  TGI: 47 µM
RXF-631 renal
  TGI: 47.2 µM
MALME-3M melanoma
  TGI: 48.3 µM
NCI-H23 lung
  TGI: 63.7 µM
IGROV1 ovarian
  TGI: 60.1 µM
CCRF-CEM leukemia
  TGI: 45.3 µM
KM20L2 colon
  TGI: 50 µM
SNB-19 CNS
  TGI: 46.7 µM
SF-268 CNS
  TGI: 46.2 µM
HCT-15 colon
  TGI: 29.9 µM
A498 renal
  TGI: > 100 µM
SF-539 CNS
  TGI: 37.7 µM
SW-620 colon
  TGI: 28.1 µM
HT29 colon
  TGI: 38.3 µM
SR leukemia
  TGI: 59.6 µM
SK-MEL-2 melanoma
  TGI: 31.4 µM
HL-60(TB) leukemia
  TGI: 37.4 µM
NCI-H522 lung
  TGI: 31.5 µM
SN12C renal
  TGI: 42.3 µM
NCI-H460 lung
  TGI: 30.3 µM
UACC-257 melanoma
  TGI: 49.7 µM
U251 CNS
  TGI: 27.3 µM
SNB-78 CNS
  TGI: 91.6 µM
ACHN renal
  TGI: 67.7 µM
